Data taken from ChEMBL document CHEMBL5226308, “Amide-Amine Replacement in Indole-2-carboxamides Yields Potent Mycobactericidal Agents with Improved Water Solubility” (ACS Med Chem Lett, 2021).
The source made the active and inactive calls. No cut-off for these calls is given here.

Columns and labels:
[1] = test system: Mycobacterium tuberculosis variant bovis; assay: Inhibition of MmpL3 in Mycobacterium bovis BCG ATCC 35734 assessed as increase in TMM level at 1XMIC90 treated for 1 hr followed by incubation with [14C]acetate for 1 to 3 hrs by thin layer chromatography; conditions: time 2-4 hrs, TDE = time-dependent effect
[2] = test system: Mycobacterium tuberculosis variant bovis; assay: Inhibition of MmpL3 C1932G/F644L mutant in Mycobacterium bovis BCG B47-4 assessed as reduction in TDM level at 1XMIC90 treated for 1 hr followed by incubation with [14C]acetate for 1 to 3 hrs by thin layer chromatography; conditions: time 2-4 hrs
[3] = test system: Mycobacterium tuberculosis variant bovis; assay: Inhibition of MmpL3 C1932G/F644L mutant in Mycobacterium bovis BCG B47-4 assessed as increase in TMM level at 1XMIC90 treated for 1 hr followed by incubation with [14C]acetate for 1 to 3 hrs by thin layer chromatography; conditions: time 2-4 hrs
[4] = test system: Mycobacterium tuberculosis variant bovis; assay: Inhibition of MmpL3 in Mycobacterium bovis BCG ATCC 35734 assessed as reduction in TDM level at 1XMIC90 treated for 1 hr followed by incubation with [14C]acetate for 1 to 3 hrs by thin layer chromatography; conditions: time 2-4 hrs, TDE = time-dependent effect
[5] = test system: Mycobacterium tuberculosis variant bovis; assay: Inhibition of MmpL3 in Mycobacterium bovis BCG ATCC 35734 assessed as reduction in TDM level at 4XMIC90 treated for 1 hr followed by incubation with [14C]acetate for 1 to 3 hrs by thin layer chromatography; conditions: time 2-4 hrs
[6] = test system: Mycobacterium tuberculosis variant bovis; assay: Inhibition of MmpL3 in Mycobacterium bovis BCG ATCC 35734 assessed as increase in TMM level at 4XMIC90 treated for 1 hr followed by incubation with [14C]acetate for 1 to 3 hrs by thin layer chromatography; conditions: time 2-4 hrs

| SMILES | inhibition [1] | inhibition [2] | inhibition [3] | inhibition [4] | inhibition [5] | inhibition [6] |
| --- | --- | --- | --- | --- | --- | --- |
| c1ccc2sc(CNC3CCCCCCC3)cc2c1 | Tde | inactive | inactive | Tde |  |  |
| FC(F)(F)c1ccc2cc(CNC3CCCCCCC3)[nH]c2c1 | Tde | inactive | inactive | Tde |  |  |
| Cc1c(CN2CCN(C)CC2)cc(-c2ccc(Cl)cc2)n1-c1ccc(Cl)cc1 | Tde | inactive | inactive | Tde |  |  |
| O=C(NC1CCCCCCC1)c1cc2ccc(C(F)(F)F)cc2[nH]1 | Tde | inactive | inactive | Tde |  |  |
| O=C(NC1CCCCCCC1)c1cc2ccccc2[se]1 |  | inactive | inactive |  |  |  |
| c1ccc2[se]c(CNC3CCCCCCC3)cc2c1 |  | inactive | inactive |  |  |  |
| CC[C@@H](CO)NCCN[C@@H](CC)CO |  |  |  |  | inactive | inactive |
| O=C(NC1CCCCCCC1)c1cc2ccccc2s1 |  | inactive | inactive |  |  |  |
